Assay results reported in patent US12691070B2, “Cationic lipids and preparation method thereof” (RiboX Therapeutics HK Limited, priority 2023, dated 2026).
One block for each compound: values may come before it.

Tests used:
[1] = tested on: Hep G2 cells; test: In vitro toxicity (CellTiter-Glo cell viability), Hep G2; type: cell-based;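 note: percent of untreated cells luminescence signal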
Procedure: (§1) RAW 264.7 and Hep G2 cells were transfected with 1 μg/mL RNA-LNPs. At 72 hours post transfection, cell viability was determined with the CellTiter-Glo® reagent kit, according to the kit protocol, measured by a luminometer.
(§2) The cell viability was calculated according to the following formula: […]

[2] = tested on: Hep G2 cells; test: In vitro expression of firefly-luciferase, Hep G2; type: cell-based
Procedure: (§3) RAW 264.7 and Hep G2 cells were transfected with 100 ng/mL of RNA-LNPs encoding for firefly-luciferase. At 72 hours post transfection, the cells were washed and lysed. The luciferase expression was determined in the cell lysates with the luciferase assay reagent kit (Promega), according to the kit protocol, luciferase activity was measured by a luminometer.

[3] = tested on: BALB/C mice; test: In vivo expression, whole-body luminescence (IVIS)
Procedure: 6-8 week old, female BALB/C mice were injected with 0.05 mg*kg-1 of RNA-LNPs encoding for firefly-luciferase by intravenous injection. At 6 hours post injection, animals were intraperitoneally injected with 15 mg/ml of Luciferin substrate and whole-body luminescence was determined by a bioluminescent in vivo imaging system (IVIS).

[4] = RNA encapsulation efficacy by Quant-IT Ribogreen kit; type: physicochemical; settings: for Encapsulation Efficiency %: LNP with cirRNA (SEQ ID NO: 1)
Procedure: (§4) Ionizable lipid, DSPC, Cholesterol and DMG-PEG 2000 were mixed at a molar ratio of 50:10:38.5:1.5 in absolute ethanol. Circular RNA and linear mRNA payloads were suspended in 25 mM Acetate Buffer (pH 4.5). To form LNPs, three volumes of luciferase encoding RNA, in the form of cirRNA (SEQ ID NO:1) and mRNA (SEQ ID NO:2) respectively, were mixed with one volume of lipids in ethanol solution by microfluidic mixing with the Nanoassemblr Ignite (Precision Nanosystems) at a flow rate of 12 ml/min. The molar ratio of ionizable lipid to ribonucleotide was 15 or 6. The final lipid concentration in solution ranged from 1.5 mM to 6 mM. After encapsulation, the particles were dialyzed twice against PBS.
(§5) The LNP size and polydispersity index (PDI), determined by dynamic light scattering (DLS), and zeta potential were measured by a Zetasizer machine (Malvern). RNA concentration and encapsulation efficacy were analyzed by the Quant-IT Ribogreen kit by calculating the percentage encapsulation at 100%−(RNA-LNPs/RNA-LNPs with Triton X-100).

[5] = tested on: RAW 264.7 cells; test: In vitro toxicity (CellTiter-Glo cell viability), RAW 264.7; type: cell-based;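 note: percent of untreated cells luminescence signal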
Procedure: as §1, §2

[6] = LNP zeta potential (Zetasizer); type: physicochemical
Procedure: as §4, §5

[7] = tested on: RAW 264.7 cells; test: In vitro expression of firefly-luciferase, RAW 264.7; type: cell-based
Procedure: as §3

[8] = LNP size and polydispersity index (PDI) by dynamic light scattering; type: physicochemical; settings: for Size: in nm (unit assumed)
Procedure: as §4, §5

[9] = cirRNA (SEQ ID NO: 1) LNPs, Hep G2 cells
[10] = cirRNA (SEQ ID NO: 1) LNPs, firefly-luciferase luminescence, Hep G2 cells
[11] = cirRNA (SEQ ID NO: 1) LNPs, BALB/C mice
[12] = cirRNA (SEQ ID NO: 1) LNPs, RAW 264.7 cells
[13] = cirRNA (SEQ ID NO: 1) LNPs, firefly-luciferase luminescence, RAW 264.7 cells
[14] = mRNA (SEQ ID NO: 2) LNP, 1 μg/mL, 72 hours post transfection
[15] = mRNA (SEQ ID NO: 2) LNP, 100 ng/mL, 72 hours post transfection, luciferase activity

- Encapsulation Efficiency % [4]: 97%
- Zeta (mV) ([6]; LNP with cirRNA (SEQ ID NO: 1)): 27.23 mV
- PDI ([8]; LNP with cirRNA (SEQ ID NO: 1)): 0.4284
- Size ([8]; LNP with cirRNA (SEQ ID NO: 1)): 86.14
Structure (SMILES): CCCCCCCCCCCOC(=O)CCCCCN(CCCCCCCCOC(=O)C(CCCCCC)CCCCCCCC)CCOC(=O)NCCCN(C)C (centres unmarked) [Lipid 224]
- In vitro Viability HepG2 [1, 9]: 90%
- In vitro Expression HepG2 [2, 10]: 3.58E+05
- In vivo Expression (Whole Body) [3, 11]: 5.05E+05
- In vitro Viability RAW [5, 12]: 73%
- In vitro Expression RAW [7, 13]: 6.89E+03

- Encapsulation Efficiency % [4]: 74%
- Encapsulation Efficiency ([4]; LNP with mRNA (SEQ ID NO: 2)): 83.95%
- Zeta (mV) ([6]; LNP with cirRNA (SEQ ID NO: 1)): 1.916 mV
- Zeta (mV) ([6]; LNP with mRNA (SEQ ID NO: 2)): 10.76 mV
- PDI ([8]; LNP with cirRNA (SEQ ID NO: 1)): 0.2901
- Size ([8]; LNP with cirRNA (SEQ ID NO: 1)): 145.2
- PDI ([8]; LNP with mRNA (SEQ ID NO: 2)): 0.2719
- Size ([8]; LNP with mRNA (SEQ ID NO: 2)): 118
Structure (SMILES): CCCCC/C=C\C/C=C\CCCCCCCCN(CCCCCCCC/C=C\C/C=C\CCCCC)CCOC(=O)CCCN(C)C [Lipid A, reference compound]
- In vitro Viability HepG2 [1, 14]: 108%
- In vitro Expression HepG2 [2, 10]: 1.90E+06
- In vitro Expression HepG2 [2, 15]: 3.08E+07
- In vivo Expression (Whole Body) ([3]; mRNA (SEQ ID NO: 2) LNP, 0.05 mg*kg-1 intravenous, 6 hours post injection): 2.13E+08
- In vitro Viability RAW [5, 14]: 96%
- In vitro Expression RAW [7, 15]: 5.86E+06

- Encapsulation Efficiency % [4]: 91%
- Zeta (mV) ([6]; LNP with cirRNA (SEQ ID NO: 1)): −1.368 mV
- PDI ([8]; LNP with cirRNA (SEQ ID NO: 1)): 0.1852
- Size ([8]; LNP with cirRNA (SEQ ID NO: 1)): 65.7
Structure (SMILES): CCCCCCCCCCCOC(=O)CCCCCN(CCCCCCCCOC(=O)C(CCCCCC)CCCCCCCC)CCOC(=O)NCc1ncc[nH]1 (centres unmarked) [Lipid 221]
- In vitro Viability HepG2 [1, 9]: 87%
- In vitro Expression HepG2 [2, 10]: 2.82E+05
- In vivo Expression (Whole Body) [3, 11]: 1.79E+07
- In vitro Viability RAW [5, 12]: 83%
- In vitro Expression RAW [7, 13]: 5.03E+05

- Encapsulation Efficiency % [4]: 95%
- Zeta (mV) ([6]; LNP with cirRNA (SEQ ID NO: 1)): 14.86 mV
- PDI ([8]; LNP with cirRNA (SEQ ID NO: 1)): 0.298
- Size ([8]; LNP with cirRNA (SEQ ID NO: 1)): 115.7
Structure (SMILES): CCCCCCCCCCCOC(=O)CCCCCN(CCCCCCCCOC(=O)C(CCCCCC)CCCCCCCC)CCOC(=O)NCCN1CCCC1 (centres unmarked) [Lipid 226]
- In vitro Viability HepG2 [1, 9]: 91%
- In vitro Expression HepG2 [2, 10]: 7.79E+05
- In vivo Expression (Whole Body) [3, 11]: 2.20E+07
- In vitro Viability RAW [5, 12]: 108%
- In vitro Expression RAW [7, 13]: 9.79E+03

- Encapsulation Efficiency % [4]: 94%
- Zeta (mV) ([6]; LNP with cirRNA (SEQ ID NO: 1)): 13.62 mV
- PDI ([8]; LNP with cirRNA (SEQ ID NO: 1)): 0.436
- Size ([8]; LNP with cirRNA (SEQ ID NO: 1)): 97.91
Structure (SMILES): CCCCCCCCCC(=O)OCCCCCCCN(CCCCCCCCOC(=O)C(CCCCCC)CCCCCCCC)CCOC(=O)NCCCN(CC)CC (centres unmarked) [Lipid 199]
- In vitro Viability HepG2 [1, 9]: 87%
- In vitro Expression HepG2 [2, 10]: 3.74E+05
- In vivo Expression (Whole Body) [3, 11]: 3.44E+05
- In vitro Viability RAW [5, 12]: 0%
- In vitro Expression RAW [7, 13]: 1.29E+03

- Encapsulation Efficiency % [4]: 73%
- Zeta (mV) ([6]; LNP with cirRNA (SEQ ID NO: 1)): −0.09389 mV
- PDI ([8]; LNP with cirRNA (SEQ ID NO: 1)): 0.08783
- Size ([8]; LNP with cirRNA (SEQ ID NO: 1)): 98.65
Structure (SMILES): CCCCCCCCCC(=O)OCCCCCCCCN(CCCCCCCCOC(=O)CCCCCCCCC)CCOC(=O)NCc1ncc[nH]1 [Lipid 203]
- In vitro Viability HepG2 [1, 9]: 103%
- In vitro Expression HepG2 [2, 10]: 1.12E+04
- In vivo Expression (Whole Body) [3, 11]: 6.84E+06
- In vitro Viability RAW [5, 12]: 91%
- In vitro Expression RAW [7, 13]: 7.82E+04

The next lines start with the compound.

Structure (SMILES): CCCCC/C=C\C/C=C\CCCCCCCCN(CCCCCCCC(=O)OC(CCCCCCCC)CCCCCCCC)CCOC(=O)NCCN1CCOCC1 [Lipid 134, heptadecan-9-yl 8-((2-(((2-morpholinoethyl)carbamoyl)oxy)ethyl)((9Z,12Z)-octadeca-9,12-dien-1-yl)amino)octanoate]
- In vitro Viability HepG2 [1, 9]: 13%
- In vitro Expression HepG2 [2, 10]: 3.17E+04
- In vivo Expression (Whole Body) [3, 11]: 8.93E+05
- Encapsulation Efficiency % [4]: 90%
- In vitro Viability RAW [5, 12]: 84%
- Zeta (mV) ([6]; LNP with cirRNA (SEQ ID NO: 1)): −8.698 mV
- In vitro Expression RAW [7, 13]: 5.25E+04
- PDI ([8]; LNP with cirRNA (SEQ ID NO: 1)): 0.043
- Size ([8]; LNP with cirRNA (SEQ ID NO: 1)): 89.71

Structure (SMILES): CCCCCCCCC(CCCCCCCC)OC(=O)CCCCCCCN(CCCCCCCCOC(=O)C(CCCCCC)CCCCCCCC)CCOC(=O)NCCCN(C)C (centres unmarked) [Lipid 146, heptadecan-9-yl 11-(8-((2-hexyldecanoyl)oxy)octyl)-2-methyl-7-oxo-8-oxa-2,6,11-triazanonadecan-19-oate]
- In vitro Viability HepG2 [1, 9]: 41%
- In vitro Expression HepG2 [2, 10]: 9.18E+05
- In vivo Expression (Whole Body) [3, 11]: 4.74E+06
- Encapsulation Efficiency % [4]: 87%
- In vitro Viability RAW [5, 12]: 99%
- Zeta (mV) ([6]; LNP with cirRNA (SEQ ID NO: 1)): 20.28 mV
- In vitro Expression RAW [7, 13]: 8.92E+04
- PDI ([8]; LNP with cirRNA (SEQ ID NO: 1)): 0.2699
- Size ([8]; LNP with cirRNA (SEQ ID NO: 1)): 59.34

Structure (SMILES): CCCCCCCCCCC(CCCCCCCC)COC(=O)CCCCCN(CCCCCC(=O)OCC(CCCCCCCC)CCCCCCCCCC)CCOC(=O)NCCCN(CC)CC (centres unmarked) [Lipid 172]
- In vitro Viability HepG2 [1, 9]: 41%
- In vitro Expression HepG2 [2, 10]: 1.12E+07
- In vivo Expression (Whole Body) [3, 11]: 2.14E+07
- Encapsulation Efficiency % [4]: 83%
- In vitro Viability RAW [5, 12]: 90%
- Zeta (mV) ([6]; LNP with cirRNA (SEQ ID NO: 1)): 1.36 mV
- In vitro Expression RAW [7, 13]: 5.83E+05
- PDI ([8]; LNP with cirRNA (SEQ ID NO: 1)): 0.2521
- Size ([8]; LNP with cirRNA (SEQ ID NO: 1)): 67.53

Structure (SMILES): CCCCCCCCCCCOC(=O)CCCCCN(CCCCCCCC(=O)OC(CCCCCCCC)CCCCCCCC)CCOC(=O)NCc1ncc[nH]1 [Lipid 159, heptadecan-9-yl 8-((2-((((1H-imidazol-2-yl)methyl)carbamoyl)oxy)ethyl)(6-oxo-6-(undecyloxy)hexyl)amino)octanoate]
- In vitro Viability HepG2 [1, 9]: 92%
- In vitro Expression HepG2 [2, 10]: 8.41E+05
- In vivo Expression (Whole Body) [3, 11]: 1.95E+07
- Encapsulation Efficiency % [4]: 84%
- In vitro Viability RAW [5, 12]: 90%
- Zeta (mV) ([6]; LNP with cirRNA (SEQ ID NO: 1)): −5.631 mV
- In vitro Expression RAW [7, 13]: 4.41E+04
- PDI ([8]; LNP with cirRNA (SEQ ID NO: 1)): 0.1754
- Size ([8]; LNP with cirRNA (SEQ ID NO: 1)): 57.86

Structure (SMILES): CCCCC/C=C\CCOC(=O)CCCCCN(CCCCCCCCOC(=O)C(CCCCCC)CCCCCCCC)CCOC(=O)NCCN1CCCC1 (centres unmarked) [Lipid 191]
- In vitro Viability HepG2 [1, 9]: 92%
- In vitro Expression HepG2 [2, 10]: 4.43E+04
- In vivo Expression (Whole Body) [3, 11]: 1.02E+07
- Encapsulation Efficiency % [4]: 91%
- In vitro Viability RAW [5, 12]: 4%
- Zeta (mV) ([6]; LNP with cirRNA (SEQ ID NO: 1)): 12.32 mV
- In vitro Expression RAW [7, 13]: 1.22E+03
- PDI ([8]; LNP with cirRNA (SEQ ID NO: 1)): 0.2327
- Size ([8]; LNP with cirRNA (SEQ ID NO: 1)): 79.79

Structure (SMILES): CCCCCCCCCCCOC(=O)CCCCCN(CCCCCC(=O)OCCCCCCCCCCC)CCOC(=O)NCc1ncc[nH]1 [Lipid 155, diundecyl 6,6′-((2-((((1H-imidazol-2-yl)methyl)carbamoyl)oxy)ethyl)azanediyl)dihexanoate]
- In vitro Viability HepG2 [1, 9]: 111%
- In vitro Expression HepG2 [2, 10]: 2.72E+04
- In vivo Expression (Whole Body) [3, 11]: 5.77E+07
- Encapsulation Efficiency % [4]: 76%
- In vitro Viability RAW [5, 12]: 101%
- Zeta (mV) ([6]; LNP with cirRNA (SEQ ID NO: 1)): 15.16 mV
- In vitro Expression RAW [7, 13]: 5.98E+02
- PDI ([8]; LNP with cirRNA (SEQ ID NO: 1)): 0.1182
- Size ([8]; LNP with cirRNA (SEQ ID NO: 1)): 92.39
